Experimental data from patent publication US20130253012A1, “Pyrazole Compounds for Controlling Invertebrate Pests” (BASF SE, priority 2010, published 2013).

What was measured:
Format in all cases: in vivo
[1] = test system: Cotton Aphid (Aphis gossypii, Mixed Life Stages); experiment: Cotton aphid, method a) (cotyledon dip); details: 300 ppm; cotton cotyledons dipped; counts after 5 days
Excerpt: (§1) II.1 Cotton Aphid (Aphis gossypii, Mixed Life Stages)
(§2) The active compounds were formulated in 50:50 (v/v) acetone:water and 100 ppm nonionic surfactant (Kinetic®).
Cotton plants at the cotyledon stage (one plant per pot) were infested by placing a heavily infested leaf from the main colony on top of each cotyledon. The aphids were allowed to transfer to the host plant overnight, and the leaf used to transfer the aphids was removed. The cotyledons were dipped in the test solution and allowed to dry. After 5 days, mortality counts were made.

[2] = test system: Green Peach Aphid (Myzus persicae, Mixed Life Stages); experiment: Green peach aphid, method a) (leaf dip, pepper plants); details: 300 ppm; pepper plant leaves dipped; after 5 days
Description: (§3) II.2 Green Peach Aphid (Myzus persicae, Mixed Life Stages)
as §2
Pepper plants in the 2nd leaf-pair stage (variety ‘California Wonder’) were infested with approximately 40 laboratory-reared aphids by placing infested leaf sections on top of the test plants. The leaf sections were removed after 24 hours. The leaves of the intact plants were dipped into gradient solutions of the test compound and allowed to dry. Test plants were maintained under fluorescent light (24 hour photoperiod) at about 25° C. and 20-40% relative humidity. Aphid mortality on the treated plants, relative to mortality on check plants, was determined after 5 days.

[3] = test system: Cowpea Aphid (Aphis craccivora); experiment: Cowpea aphid, sprayed potted cowpea plants; details: assessed after 24, 72 and 120 hours, read-out: mortality in comparison with untreated controls
Description: II.3 Cowpea Aphid (Aphis craccivora)
The active compounds were formulated in 50:50 (v/v) acetone:water. The test solution was prepared at the day of use.
Potted cowpea plants colonized with 100-150 aphids of various stages were sprayed after the pest population had been recorded. Population reduction was assessed after 24, 72, and 120 hours.

[4] = test system: Vetch Aphid (Megoura viciae); experiment: Vetch aphid, bean leaf disks in microtiterplates; details: foliar, 144 h, test solution 2500 mg/L, bean leaf disks sprayed with 2.5 μl, 6 days
Description: II.4 Vetch Aphid (Megoura viciae)
The active compounds were formulated in 1:3 (v/v) DMSO:water with different concentrations of formulated compounds.
Bean leaf disks were placed into microtiterplates filled with 0.8% agar-agar and 2.5 ppm OPUS™. The leaf disks were sprayed with 2.5 μl of the test solution and 5 to 8 adult aphids were placed into the microtiterplates which were then closed and kept at 23±1° C. and 50±5% relative humidity under fluorescent light for 6 days. Mortality was assessed on the basis of vital, reproduced aphids. Aphid mortality and fecundity was then visually assessed.

[5] = test system: Cotton Aphid (Aphis gossypii, Mixed Life Stages); experiment: Cotton aphid, method b) (electrostatic spray); details: 120 h, infested cotton plants sprayed, after 5 days, read-out: mortality in comparison with untreated controls
Description: as §1
(§4) The active compounds were formulated in cyclohexanone as a 10,0000 ppm solution supplied in 1.3 ml ABgene® tubes. These tubes were inserted into an automated electrostatic sprayer equipped with an atomizing nozzle and they served as stock solutions for which lower dilutions were made in 50% acetone:50% water (v/v). A nonionic surfactant (Kinetic®) was included in the solution at a volume of 0.01% (v/v).
Cotton plants at the cotyledon stage were infested with aphids prior to treatment by placing a heavily infested leaf from the main aphid colony on top of each cotyledon. Aphids were allowed to transfer overnight to accomplish an infestation of 80-100 aphids per plant and the host leaf was removed. The infested plants were then sprayed by an automated electrostatic plant sprayer equipped with an atomizing spray nozzle. The plants were dried in the sprayer fume hood, removed from the sprayer, and then maintained in a growth room under fluorescent lighting in a 24 hour photoperiod at 25° C. and 20-40% relative humidity. Aphid mortality on the treated plants, relative to mortality on untreated control plants, was determined after 5 days.

[6] = test system: Green Peach Aphid (Myzus persicae, Mixed Life Stages); experiment: Green peach aphid, method b) (electrostatic spray, bell pepper plants); details: 120 h, infested bell pepper plants sprayed, after 5 days, read-out: mortality in comparison with untreated controls
Description: as §3, §4
Bell pepper plants at the first true-leaf stage were infested prior to treatment by placing heavily infested leaves from the main colony on top of the treatment plants. Aphids were allowed to transfer overnight to accomplish an infestation of 30-50 aphids per plant and the host leaves were removed. The infested plants were then sprayed by an automated electrostatic plant sprayer equipped with an atomizing spray nozzle. The plants were dried in the sprayer fume hood, removed, and then maintained in a growth room under fluorescent lighting in a 24 hour photoperiod at 25° C. and 20-40% relative humidity. Aphid mortality on the treated plants, relative to mortality on untreated control plants, was determined after 5 days.

[7] = test system: Boll Weevil (Anthonomus grandis); experiment: Boll weevil, insect diet with eggs in 24-well microtiter plates; details: 120 h, test solution 2500 mg/L, 20 μl sprayed onto insect diet, 5 days, read-out: mortality (egg and larval)
Description: II.5 Boll Weevil (Anthonomus grandis)
The compounds were formulated in 75:25 (v/v) water:DMSO.
For evaluating control of boll weevil (Anthonomus grandis) the test unit consisted of 24-well-microtiter plates containing an insect diet and 20-30 A. grandis eggs. Different concentrations of formulated compounds were sprayed onto the insect diet at 20 μl, using a custom built micro atomizer, at two replications. After application, the microtiter plates were incubated at 23±1° C. and 50±5% relative humidity for 5 days. Egg and larval mortality was then visually assessed.

[8] = test system: Green Peach Aphid (Myzus persicae); experiment: Green peach aphid through systemic means, artificial diet under membrane; details: 72 h, pipetted into aphid diet, 3 days, read-out: mortality in comparison with untreated controls
Excerpt: II.6 Activity Against Green Peach Aphid (Myzus persicae)
For evaluating control of green peach aphid (Myzus persicae) through systemic means the test unit consisted of 96-well-microtiter plates containing liquid artificial diet under an artificial membrane.
The compounds were formulated using a solution containing 75% v/v water and 25% v/v DMSO. Different concentrations of formulated compounds were pipetted into the aphid diet, using a custom built pipetter, at two replications. After application, 5 to 8 adult aphids were placed on the artificial membrane inside the microtiter plate wells. The aphids were then allowed to suck on the treated aphid diet and incubated at about 23+1° C. and about 50+5% relative humidity for 3 days. Aphid mortality and fecundity was then visually assessed.

[9] = test system: Green Peach Aphids (Myzus persicae); experiment: Hydroponic test against green peach aphids (bare root pepper plants); details: bare roots immersed 24 hours, assay 3 days, read-out: mortality in comparison with untreated controls
Description: II.9 Activity in the Hydroponic Tests Against Green Peach Aphids (Myzus persicae)
(§5) Green pepper plants (Capsicum annuum L., variety ‘California Wonder’) were grown in the greenhouse from seed to the second true leaf stage (BBCH 12) in Scott's Metro-Mix® 360 (1 to 2 plants per 2¼″ square pot). Cotyledon leaves were removed and roots were rinsed in tap water until free of soil. The roots were kept moist under a layer of wet paper toweling until all plants had been prepared.
(§6) A 3,400 ppm stock solution was prepared of each test compound using reagent grade acetone as the solvent. Subsequent dilutions of 100 and 10 ppm were prepared from this stock with final dilutions in deionized water in 100 ml amber glass bottles. One bare root plant was placed in each bottle using a foam plug section to centrally secure the stem in the bottleneck. The bare roots were fully-immersed in the test suspensions. Host plants were placed in a plant growth room under continuous GroLux® fluorescent lighting (40 Watt), for 24 hours at 25±2° C. and 20-40% relative humidity.
After exposure of the bare roots to the test suspensions, pieces of pepper plants infested with green peach aphid (Myzus persicae) were placed on top of the test foliage. Insects were allowed to transfer from the host leaves to accomplish an infestation of 40-50 insects per plant. The assay was allowed to run for 3 days in the same growth room as used previously. Assessments included estimates of aphid population density reduction relative to the average density of aphids on the untreated control plants. Phytotoxic responses of the host plants were also recorded at this time.

[10] = test system: Cotton Aphids (Aphis gossypii); experiment: Hydroponic test against cotton aphids (bare root cotton plants); details: bare roots immersed 24 hours, assay 3 days, read-out: mortality in comparison with untreated controls
Description: II.10 Activity in the Hydroponic Tests Against Cotton Aphids (Aphis gossypii)
as §5, with “Cotton” for “Green pepper”, “(Gossypium hirsutum,” for “(Capsicum annuum L.,”, “‘Sure Grow 747’)” for “‘California Wonder’)”
as §6
After exposure of the bare roots to the test suspensions, pieces of cotton plants infested with cotton aphids (Aphis gossypi) were placed on top of the test foliage. Insects were allowed to transfer from the host leaves to accomplish an infestation of 40-50 insects per plant. […] Phytotoxic responses of the host plants were also recorded at this time.

[11] = test system: Silverleaf Whitefly (Bemisia argentifolii, Adult); experiment: Silverleaf whitefly, sprayed cotton plants; details: 72 h, 3 days after treatment, read-out: mortality in comparison with untreated controls
Description: II.7 Silverleaf Whitefly (Bemisia argentifolii, Adult)
as §4
Cotton plants at the cotyledon stage (one plant per pot) were sprayed by an automated electrostatic plant sprayer equipped with an atomizing spray nozzle. The plants were dried in the sprayer fume hood and then removed from the sprayer. Each pot was placed into a plastic cup and 10 to 12 whitefly adults (approximately 3-5 days old) were introduced. The insects were collected using an aspirator and 0.6 cm, nontoxic Tygon® tubing (R-3603) connected to a barrier pipette tip. The tip, containing the collected insects, was then gently inserted into the soil containing the treated plant, allowing insects to crawl out of the tip to reach the foliage for feeding. Cups were covered with a reusable screened lid (150-micron mesh polyester screen PeCap from Tetko, Inc.). […] Mortality was assessed 3 days after treatment, compared to untreated control plants.

Compound | mortality at 500 ppm [3] | mortality at 2500 µg/mL [4] | mortality at 300 ppm [5] | mortality at 300 ppm [6] | mortality at 2500 µg/mL [7] | mortality at 2500 ppm [8] | mortality at 100 ppm [9] | other results
Cn1cc(-c2nncn2-c2cccnc2)c(C(F)(F)F)n1 [Example 1] | – | – | – | – | – | – | – | mortality in comparison with untreated controls [1]: at least 75%; mortality in comparison with untreated controls [2]: at least 90%
Cc1c(-c2nncn2-c2cccnc2)cnn1CC(F)(F)F [Example 2, 3-{3-[5-Methyl-1-(2,2,2-trifluoroethyl)-1H-pyrazol-4-yl]-[1,2,4]triazol-4-yl}pyridine] | ≥ 75% | – | – | – | – | – | – | –
Cc1c(-c2nc(-c3cccnc3)co2)cnn1CC(F)(F)F [Example 4, 3-{2-[5-Methyl-1-(2,2,2-trifluoroethyl)-1H-pyrazol-4-yl]-oxazol-4-yl}pyridine] | – | ≥ 90% | – | – | – | – | – | –
Cc1c(-c2nnc(-c3cccnc3)o2)cnn1CC(F)(F)F [Example 14, 3-{5-[5-Methyl-1-(2,2,2-trifluoroethyl)-1H-pyrazol-4-yl]-[1,3,4]oxadiazol-2-yl}pyridine] | ≥ 75% | – | ≥ 75% | ≥ 75% | ≥ 50% | – | – | –
Cc1c(-c2nnc(-c3cccnc3)s2)cnn1CC(F)(F)F [Example 15, 3-{5-[5-Methyl-1-(2,2,2-trifluoroethyl)-1H-pyrazol-4-yl]-[1,3,4]thiadiazol-2-yl}pyridine] | ≥ 75% | ≥ 90% | ≥ 75% | ≥ 75% | ≥ 50% | 100% | ≥ 75% | –
Cc1c(C2=NCCN2c2cccnc2)cnn1CC(F)(F)F [Example 18, 3-{2-[5-Methyl-1-(2,2,2-trifluoroethyl)-1H-pyrazol-4-yl]-4,5-dihydroimidazol-1-yl}pyridine] | ≥ 75% | – | ≥ 75% | ≥ 75% | – | 100% | ≥ 75% | mortality at 100 ppm [10]: ≥ 75%
Cc1c(-c2nccn2-c2cccnc2)cnn1CC(F)(F)F [Example 20, 3-{2-[5-Methyl-1-(2,2,2-trifluoroethyl)-1H-pyrazol-4-yl]imidazol-1-yl}pyridine] | ≥ 75% | ≥ 90% | ≥ 75% | ≥ 75% | – | 100% | ≥ 75% | mortality at 500 ppm [11]: ≥ 75%; mortality at 100 ppm [10]: ≥ 75%
Cc1c(-c2nc(-c3cccnc3)nn2C)cnn1CC(F)(F)F [Example 38, 3-{1-methyl-5-[5-methyl-1-(2,2,2-trifluoroethyl)-1H-pyrazol-4-yl]-1H-[1,2,4]triazol-3-yl}pyridine] | – | – | – | – | ≥ 50% | – | – | –
Cc1c(-c2noc(=O)n2-c2cccnc2)cnn1CC(F)(F)F [Example 39, 3-{3-[5-Methyl-1-(2,2,2-trifluoroethyl)-1H-pyrazol-4-yl]-4H-[1,2,4]oxadiazol-5-on-4-yl}pyridine] | ≥ 75% | ≥ 90% | – | – | – | 100% | – | –
